16 compounds from ChEMBL document CHEMBL1133035, “Cysteine chloromethyl and diazomethyl ketone derivatives with potent anti-leukemic activity” (Bioorg Med Chem Lett, 2000) can be followed below.

For one assay, the system named is MOLT-3. Nature of the assay: Anti-leukemic activity against Molt-3 (T-lineage ALL) human acute lymphoblastic leukemia (ALL) cell line. Format: functional, cell-based.
A further assay relates to NALM-6. Nature of the assay: Anti-leukemic activity against Nalm-6 (B-lineage ALL) human acute lymphoblastic leukemia (ALL) cell line. Format: functional, cell-based.

Each structure is given as a SMILES string. Where a SMILES comes first, the peptide text is derived from it. The star is where a group is joined. Farnesyl = CC(C)=CCC/C(C)=C/CC/C(C)=C/C*; Boc = CC(C)(C)OC(=O)*; CHN2 = [N-]=[N+]=C*; CH2Cl = ClC*

Consider `CC(=O)N[C@@H](CSC/C=C(\C)CCC=C(C)C)C(=O)C=[N+]=[N-]`, for which the IC50 in the assay with MOLT-3 and in the assay with NALM-6 was above 100 µM each time.

Consider `CC(=O)N[C@@H](CSC/C=C(\C)CC/C=C(\C)CCC=C(C)C)C(=O)C=[N+]=[N-]`, for which the IC50 was found to be 32.2 µM in the assay with MOLT-3 and 30.3 µM in the assay with NALM-6.

On to `CC(C)=CCC/C(C)=C/CC/C(C)=C/CSC[C@H](NC(=O)OC(C)(C)C)C(=O)CCl`, for which the results for the IC50 in the assay with MOLT-3 and in the assay on NALM-6 were 7.7 µM and 10.7 µM, respectively.

`CCCCCCCCCCCCSC[C@H](NC(C)=O)C(=O)C=[N+]=[N-]`: the results for the IC50 in the assay on MOLT-3 and in the assay on NALM-6 were 22.9 µM and 15.4 µM, respectively.

Turning to `CC(=O)N[C@@H](CSC/C=C(\C)CC/C=C(\C)CCC=C(C)C)C(=O)CCl`, the IC50 with MOLT-3 was 1.4 µM; with NALM-6 it was 3 µM.

Take `CC(=O)N[C@@H](CSCC=C(C)C)C(=O)CCl`: the IC50 came to 7.9 µM with MOLT-3 and 12.6 µM with NALM-6.

Turning to `CC(=O)N[C@@H](CSC/C=C(\C)CCC=C(C)C)C(=O)CCl`, the IC50 with MOLT-3 and in the assay with NALM-6 was above 100 µM in each case.

As to `CCCCCCCCCCCCSC[C@H](NC(=O)OC(C)(C)C)C(=O)CCl`, the IC50 was found to be 15.5 µM in the assay with MOLT-3 and 15.1 µM in the assay with NALM-6.

On to `CC(C)=CCC/C(C)=C/CC/C(C)=C/CSCCC(=O)CCl`, for which the IC50 in the assay with MOLT-3 is 35.5 µM; in the assay with NALM-6, 40.7 µM.

With `CC(C)=CCC/C(C)=C/CC/C(C)=C/CSCC(=O)CCl`, the IC50 in the assay on MOLT-3 was above 100 µM; in the assay with NALM-6, 84.3 µM.

Turning to `CC(C)=CCC/C(C)=C/CC/C(C)=C/CSC[C@H](NC(=O)OC(C)(C)C)C(=O)C=[N+]=[N-]`, the figures for the IC50 with MOLT-3 and in the assay with NALM-6 were 50.1 µM and 49.8 µM, respectively.

In the case of `CC(=O)N[C@@H](CSCC=C(C)C)C(=O)C=[N+]=[N-]`, the IC50 in the assay on MOLT-3 and with NALM-6 was above 100 µM throughout.

Take `CCCCCCCCCCCCSC[C@H](NC(C)=O)C(=O)CCl`: the IC50 amounted to 2.3 µM with MOLT-3 and 2 µM with NALM-6.

Turning to `CCCCCCCCCCCCSC[C@H](N)C(=O)CCl`, the IC50 with MOLT-3 was found to be 12.5 µM; with NALM-6, 17.7 µM.

Consider `CC(C)=CCC/C(C)=C/CC/C(C)=C/CSC[C@H](NC(=O)CNC(=O)OC(C)(C)C)C(=O)CCl` (Boc-Gly-Cys(Farnesyl)-CH2Cl), for which the IC50 in the assay on MOLT-3 stood at 17.5 µM; with NALM-6 it was 12.9 µM.

For the compound `CC(C)=CCC/C(C)=C/CC/C(C)=C/CSC[C@H](NC(=O)CNC(=O)OC(C)(C)C)C(=O)C=[N+]=[N-]` (Boc-Gly-Cys(Farnesyl)-CHN2), the IC50 in the assay with MOLT-3 was determined as 84.5 µM; in the assay with NALM-6, 51.3 µM.
